In the supplement of paper PMC10307832:

What was measured:
Assay in all cases: relative viability (nuclei count vs DMSO), 5 days (fraction); higher = more cells survive
[1] = compound: Cc1ccc(C(=O)Nc2cccc(C(F)(F)F)c2)cc1Nc1cncc(C(N)=O)c1 [ALW-II-49-7] + CC(C)C[C@H](NC(=O)[C@H](Cc1ccccc1)NC(=O)c1cnccn1)B(O)O [Bortezomib] (partner 0.002 µM)
In short: (§1)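 Lung cancer cell lines in 1536-well plates got either a single drug or a fixed anchor-drug dose together with five library-drug doses (not always all listed) in √10 steps, by pin tool, on the day after seeding. Nuclei were counted after 5 days, and relative viability is the treated-to-vehicle ratio of nuclei counts. Values are medians of duplicate plates.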

[2] = compound: C1CC1C(=O)NC2=NNC3=C2C=CC(=C3)C4=CC(=CC=C4)C(=O)NC5CC5 [XMD13-2] + O=C(c1cc(Cc2n[nH]c(=O)c3ccccc23)ccc1F)N1CCN(C(=O)C2CC2)CC1 [Olaparib] (partner 8 µM)
In short: as §1

[3] = compound: Cc1nc(Nc2ncc(C(=O)Nc3c(C)cccc3Cl)s2)cc(N2CCN(CCO)CC2)n1 [Dasatinib] + Nc1nc2[nH]cc(CCc3ccc(C(=O)N[C@@H](CCC(=O)O)C(=O)O)cc3)c2c(=O)[nH]1 [Pemetrexed] (partner 0.2 µM)
In short: as §1

[4] = compound: C1CC1C(=O)NC2=NNC3=C2C=CC(=C3)C4=CC(=CC=C4)C(=O)NC5CC5 [XMD13-2] + Cc1nc(NC(=O)N2CCC[C@H]2C(N)=O)sc1-c1ccnc(C(C)(C)C(F)(F)F)c1 [Alpelisib] (partner 2 µM)
In short: as §1

## ChaGo-K-1
[1]; first compound 0.08 µM
  relative viability: 0.769
[1]; first compound 0.253 µM
  relative viability: 1.23
[1]; first compound 0.8 µM
  relative viability: 1.1
[1]; first compound 2.53 µM
  relative viability: 1.18
[1]; first compound 8 µM
  relative viability: 0.864
[2]; first compound 0.05 µM
  relative viability: 0.439
[2]; first compound 0.1581 µM
  relative viability: 0.436
[2]; first compound 0.5 µM
  relative viability: 0.438
[2]; first compound 1.581 µM
  relative viability: 0.387
[2]; first compound 5 µM
  relative viability: 0.358
[3]; first compound 0.005 µM
  relative viability: 0.256
[3]; first compound 0.01581 µM
  relative viability: 0.255
[3]; first compound 0.05 µM
  relative viability: 0.254
[3]; first compound 0.1581 µM
  relative viability: 0.244
[3]; first compound 0.5 µM
  relative viability: 0.235

## EBC-1
[1]; first compound 0.08 µM
  relative viability: 0.543
[1]; first compound 0.253 µM
  relative viability: 0.508
[1]; first compound 0.8 µM
  relative viability: 0.474
[1]; first compound 2.53 µM
  relative viability: 0.513
[1]; first compound 8 µM
  relative viability: 0.39
[4]; first compound 0.05 µM
  relative viability: 0.999
[4]; first compound 0.1581 µM
  relative viability: 0.801
[4]; first compound 0.5 µM
  relative viability: 0.907
[4]; first compound 1.581 µM
  relative viability: 0.738
[4]; first compound 5 µM
  relative viability: 0.483
[2]; first compound 0.05 µM
  relative viability: 0.768
[2]; first compound 0.1581 µM
  relative viability: 0.78
[2]; first compound 0.5 µM
  relative viability: 0.837
[2]; first compound 1.581 µM
  relative viability: 0.545
[2]; first compound 5 µM
  relative viability: 0.277

## EKVX
[1]; first compound 0.08 µM
  relative viability: 1.08
[1]; first compound 0.253 µM
  relative viability: 0.919
[1]; first compound 0.8 µM
  relative viability: 0.835
[1]; first compound 2.53 µM
  relative viability: 0.424
[1]; first compound 8 µM
  relative viability: 1.04
[4]; first compound 0.05 µM
  relative viability: 1.12
[4]; first compound 0.1581 µM
  relative viability: 0.882
[4]; first compound 0.5 µM
  relative viability: 0.92
[4]; first compound 1.581 µM
  relative viability: 0.931
[4]; first compound 5 µM
  relative viability: 0.937
[2]; first compound 0.05 µM
  relative viability: 0.984
[2]; first compound 0.1581 µM
  relative viability: 0.871
[2]; first compound 0.5 µM
  relative viability: 0.907
[2]; first compound 5 µM
  relative viability: 0.907
[3]; first compound 0.005 µM
  relative viability: 0.384
[3]; first compound 0.01581 µM
  relative viability: 0.376
[3]; first compound 0.05 µM
  relative viability: 0.335
[3]; first compound 0.1581 µM
  relative viability: 0.371
[3]; first compound 0.5 µM
  relative viability: 0.152

## EMC-BAC-2
[1]; first compound 0.08 µM
  relative viability: 1.04
[1]; first compound 0.253 µM
  relative viability: 0.979
[1]; first compound 0.8 µM
  relative viability: 1.1
[1]; first compound 2.53 µM
  relative viability: 1.06
[1]; first compound 8 µM
  relative viability: 0.844
[4]; first compound 0.05 µM
  relative viability: 0.844
[4]; first compound 0.1581 µM
  relative viability: 0.748
[4]; first compound 0.5 µM
  relative viability: 0.752
[4]; first compound 1.581 µM
  relative viability: 0.703
[4]; first compound 5 µM
  relative viability: 0.57
[2]; first compound 0.05 µM
  relative viability: 0.575
[2]; first compound 0.1581 µM
  relative viability: 0.526
[2]; first compound 0.5 µM
  relative viability: 0.499
[2]; first compound 1.581 µM
  relative viability: 0.465
[2]; first compound 5 µM
  relative viability: 0.439
[3]; first compound 0.005 µM
  relative viability: 0.455
[3]; first compound 0.01581 µM
  relative viability: 0.42
[3]; first compound 0.05 µM
  relative viability: 0.405
[3]; first compound 0.1581 µM
  relative viability: 0.345
[3]; first compound 0.5 µM
  relative viability: 0.273

## EPLC-272H
[1]; first compound 0.08 µM
  relative viability: 0.806
[1]; first compound 0.253 µM
  relative viability: 0.839
[1]; first compound 0.8 µM
  relative viability: 0.934
[1]; first compound 2.53 µM
  relative viability: 1.05
[1]; first compound 8 µM
  relative viability: 0.751
[4]; first compound 0.05 µM
  relative viability: 1.03
[4]; first compound 0.1581 µM
  relative viability: 0.856
[4]; first compound 0.5 µM
  relative viability: 1.07
[4]; first compound 1.581 µM
  relative viability: 0.759
[4]; first compound 5 µM
  relative viability: 0.463
[2]; first compound 0.05 µM
  relative viability: 0.976
[2]; first compound 0.1581 µM
  relative viability: 0.854
[2]; first compound 0.5 µM
  relative viability: 0.748
[2]; first compound 1.581 µM
  relative viability: 0.528
[2]; first compound 5 µM
  relative viability: 0.172
[3]; first compound 0.005 µM
  relative viability: 0.385
[3]; first compound 0.01581 µM
  relative viability: 0.356
[3]; first compound 0.05 µM
  relative viability: 0.286
[3]; first compound 0.1581 µM
  relative viability: 0.154
[3]; first compound 0.5 µM
  relative viability: 0.198

## H3255
[1]; first compound 0.08 µM
  relative viability: 0.974
[1]; first compound 0.253 µM
  relative viability: 0.841
[1]; first compound 0.8 µM
  relative viability: 0.933
[1]; first compound 2.53 µM
  relative viability: 0.679
[1]; first compound 8 µM
  relative viability: 0.625
[4]; first compound 0.05 µM
  relative viability: 0.858
[4]; first compound 0.1581 µM
  relative viability: 0.597
[4]; first compound 0.5 µM
  relative viability: 0.658
[4]; first compound 1.581 µM
  relative viability: 0.729
[4]; first compound 5 µM
  relative viability: 0.624
[2]; first compound 0.05 µM
  relative viability: 0.635
[2]; first compound 0.1581 µM
  relative viability: 0.634
[2]; first compound 0.5 µM
  relative viability: 0.584
[2]; first compound 1.581 µM
  relative viability: 0.519
[2]; first compound 5 µM
  relative viability: 0.558
[3]; first compound 0.005 µM
  relative viability: 0.578
[3]; first compound 0.01581 µM
  relative viability: 0.535
[3]; first compound 0.05 µM
  relative viability: 0.52
[3]; first compound 0.1581 µM
  relative viability: 0.49
[3]; first compound 0.5 µM
  relative viability: 0.375

## HARA
[1]; first compound 0.08 µM
  relative viability: 1.06
[1]; first compound 0.253 µM
  relative viability: 1.17
[1]; first compound 0.8 µM
  relative viability: 0.994
[1]; first compound 2.53 µM
  relative viability: 1.22
[1]; first compound 8 µM
  relative viability: 1.26
[4]; first compound 0.05 µM
  relative viability: 0.923
[4]; first compound 0.1581 µM
  relative viability: 0.795
[4]; first compound 0.5 µM
  relative viability: 0.943
[4]; first compound 1.581 µM
  relative viability: 0.808
[4]; first compound 5 µM
  relative viability: 0.988
[2]; first compound 0.05 µM
  relative viability: 0.76
[2]; first compound 0.1581 µM
  relative viability: 1.11
[2]; first compound 0.5 µM
  relative viability: 0.831
[2]; first compound 1.581 µM
  relative viability: 0.987
[2]; first compound 5 µM
  relative viability: 0.643
[3]; first compound 0.005 µM
  relative viability: 0.241
[3]; first compound 0.01581 µM
  relative viability: 0.234
[3]; first compound 0.05 µM
  relative viability: 0.229
[3]; first compound 0.1581 µM
  relative viability: 0.202
[3]; first compound 0.5 µM
  relative viability: 0.151

## HCC-15
[1]; first compound 0.08 µM
  relative viability: 0.957
[1]; first compound 0.253 µM
  relative viability: 0.92
[1]; first compound 0.8 µM
  relative viability: 0.959
[1]; first compound 2.53 µM
  relative viability: 1.1
[1]; first compound 8 µM
  relative viability: 0.952
[4]; first compound 0.05 µM
  relative viability: 0.91
[4]; first compound 0.1581 µM
  relative viability: 0.811
[4]; first compound 0.5 µM
  relative viability: 0.911
[4]; first compound 1.581 µM
  relative viability: 0.878
[4]; first compound 5 µM
  relative viability: 0.619
[2]; first compound 0.05 µM
  relative viability: 0.706
[2]; first compound 0.1581 µM
  relative viability: 0.66
[2]; first compound 0.5 µM
  relative viability: 0.785
[2]; first compound 1.581 µM
  relative viability: 0.669
[2]; first compound 5 µM
  relative viability: 0.661
[3]; first compound 0.005 µM
  relative viability: 0.198
[3]; first compound 0.01581 µM
  relative viability: 0.207
[3]; first compound 0.05 µM
  relative viability: 0.209
[3]; first compound 0.1581 µM
  relative viability: 0.203
[3]; first compound 0.5 µM
  relative viability: 0.205

## HCC-44
[1]; first compound 0.08 µM
  relative viability: 0.84
[1]; first compound 0.253 µM
  relative viability: 0.89
[1]; first compound 0.8 µM
  relative viability: 0.885
[1]; first compound 2.53 µM
  relative viability: 0.846
[1]; first compound 8 µM
  relative viability: 0.889
[4]; first compound 0.05 µM
  relative viability: 0.995
[4]; first compound 0.1581 µM
  relative viability: 0.843
[4]; first compound 0.5 µM
  relative viability: 0.934
[4]; first compound 1.581 µM
  relative viability: 0.82
[4]; first compound 5 µM
  relative viability: 0.745
[2]; first compound 0.05 µM
  relative viability: 1.01
[2]; first compound 0.1581 µM
  relative viability: 0.983
[2]; first compound 0.5 µM
  relative viability: 0.974
[2]; first compound 1.581 µM
  relative viability: 1.03
[2]; first compound 5 µM
  relative viability: 0.986
[3]; first compound 0.005 µM
  relative viability: 0.627
[3]; first compound 0.01581 µM
  relative viability: 0.579
[3]; first compound 0.05 µM
  relative viability: 0.692
[3]; first compound 0.1581 µM
  relative viability: 0.709
[3]; first compound 0.5 µM
  relative viability: 0.633
